Test results as given in PubChem BioAssay (NCI).
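Five compound concentrations were applied to cells in 96-well plates for 48 hours; endpoints were derived by simple linear interpolation of the resulting dose-response curve. TGI is the concentration that stops growth completely.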

How the values were obtained:
Experiment in all cases: growth of human tumour cells (NCI), 48 h
[1] = test system: UACC-257 melanoma
[2] = test system: NCI-H522 lung
[3] = test system: PC-3 prostate
[4] = test system: UO-31 renal
[5] = test system: NCI-H23 lung
[6] = test system: ACHN renal
[7] = test system: BT-549 breast
[8] = test system: HL-60(TB) leukemia
[9] = test system: MDA-MB-231 breast
[10] = test system: HCC-2998 colon
[11] = test system: SK-OV-3 ovarian
[12] = test system: SF-295 CNS
[13] = test system: CAKI-1 renal
[14] = test system: HCT-116 colon
[15] = test system: CCRF-CEM leukemia
[16] = test system: SNB-19 CNS
[17] = test system: KM12 colon
[18] = test system: COLO 205 colon
[19] = test system: TK-10 renal
[20] = test system: A498 renal
[21] = test system: IGROV1 ovarian
[22] = test system: EKVX NSCLC
[23] = test system: SK-MEL-5 melanoma
[24] = test system: MDA-N
[25] = test system: M14 melanoma
[26] = test system: HOP-62 NSCLC
[27] = test system: HOP-92 NSCLC
[28] = test system: RXF 393 renal
[29] = test system: HT29 colon
[30] = test system: OVCAR-5 ovarian
[31] = test system: DU-145 prostate
[32] = test system: OVCAR-4 ovarian
[33] = test system: SW-620 colon
[34] = test system: K-562 leukemia
[35] = test system: SK-MEL-2 melanoma
[36] = test system: MDA-MB-435
[37] = test system: SF-539 CNS
[38] = test system: LOX IMVI melanoma
[39] = test system: MOLT-4 leukemia
[40] = test system: MALME-3M melanoma
[41] = test system: MCF7 breast
[42] = test system: NCI/ADR-RES ovarian
[43] = test system: A549 NSCLC
[44] = test system: OVCAR-3 ovarian
[45] = test system: RPMI-8226 leukemia
[46] = test system: T-47D breast
[47] = test system: HCT-15 colon
[48] = test system: SF-268 CNS
[49] = test system: SN12C renal
[50] = test system: NCI-H460 lung
[51] = test system: 786-0 renal
[52] = test system: HS 578T breast
[53] = test system: UACC-62 melanoma
[54] = test system: OVCAR-8 ovarian
[55] = test system: SK-MEL-28 melanoma
[56] = test system: SR leukemia
[57] = test system: U251 CNS

## N=c1ccc2c(c1)[nH]c1c3ccccc3[nH]c3cccc2c31
[1]
  TGI: 3.52 µM
[2]
  TGI: 3.06 µM
[3]
  TGI: 2.97 µM
[4]
  TGI: 3.14 µM
[5]
  TGI: 2.94 µM
[6]
  TGI: 2.74 µM
[7]
  TGI: 13.1 µM
[8]
  TGI: > 100 µM
[9]
  TGI: 2.69 µM
[10]
  TGI: 2.44 µM
[11]
  TGI: 3 µM
[12]
  TGI: 2.61 µM
[13]
  TGI: 3.02 µM
[14]
  TGI: 2.8 µM
[15]
  TGI: > 100 µM
[16]
  TGI: 3 µM
[17]
  TGI: 2.6 µM
[18]
  TGI: 2.67 µM
[19]
  TGI: 3.62 µM
[20]
  TGI: 3.2 µM
[21]
  TGI: 2.67 µM
[22]
  TGI: 3.1 µM
[23]
  TGI: 3.17 µM
[24]
  TGI: 2.76 µM
[25]
  TGI: 3.65 µM
[26]
  TGI: 2.58 µM
[27]
  TGI: 3.22 µM
[28]
  TGI: 3.09 µM
[29]
  TGI: 2.47 µM
[30]
  TGI: 3.16 µM
[31]
  TGI: 2.95 µM
[32]
  TGI: 3.23 µM
[33]
  TGI: 2.02 µM
[34]
  TGI: > 100 µM
[35]
  TGI: 3.14 µM
[36]
  TGI: 3.2 µM

## N/N=C1/CCCc2nonc21
[1]
  TGI: > 100 µM
[37]
  TGI: > 100 µM
[38]
  TGI: > 100 µM
[3]
  TGI: > 100 µM
[39]
  TGI: > 100 µM
[40]
  TGI: > 100 µM
[5]
  TGI: > 100 µM
[41]
  TGI: > 100 µM
[42]
  TGI: > 100 µM
[6]
  TGI: > 100 µM
[8]
  TGI: > 100 µM
[43]
  TGI: > 100 µM
[9]
  TGI: > 100 µM
[44]
  TGI: > 100 µM
[45]
  TGI: > 100 µM
[10]
  TGI: > 100 µM
[46]
  TGI: > 100 µM
[11]
  TGI: > 100 µM
[12]
  TGI: > 100 µM
[13]
  TGI: > 100 µM
[47]
  TGI: > 100 µM
[48]
  TGI: > 100 µM
[14]
  TGI: > 100 µM
[49]
  TGI: > 100 µM
[15]
  TGI: > 100 µM
[50]
  TGI: > 100 µM
[17]
  TGI: > 100 µM
[18]
  TGI: > 100 µM
[19]
  TGI: > 100 µM
[21]
  TGI: > 100 µM
[22]
  TGI: > 100 µM
[23]
  TGI: > 100 µM
[51]
  TGI: > 100 µM
[24]
  TGI: > 100 µM
[25]
  TGI: > 100 µM
[26]
  TGI: > 100 µM
[27]
  TGI: > 100 µM
[28]
  TGI: > 100 µM
[52]
  TGI: > 100 µM
[29]
  TGI: > 100 µM
[53]
  TGI: > 100 µM
[30]
  TGI: > 100 µM
[54]
  TGI: > 100 µM
[55]
  TGI: > 100 µM
[31]
  TGI: > 100 µM
[32]
  TGI: > 100 µM
[33]
  TGI: > 100 µM
[34]
  TGI: > 100 µM
[56]
  TGI: > 100 µM
[35]
  TGI: > 100 µM
[36]
  TGI: > 100 µM
[57]
  TGI: > 100 µM
